Assay results published in patent US20260035409A1, “BRINP2-DERIVED PEPTIDE COMPOSITIONS FOR TREATING OBESITY AND WEIGHT MANAGEMENT” (The Board of Trustees of the Leland Stanford Junior …, priority 2022, published 2026).
Ends that are not written are not given here.

Tests used:
[1] = test system: cfos expression in INS1 cells; assay: cfos expression after 1 h peptide treatment, INS1 cells (qRT-PCR); format: cell-based, rat; conditions: GLP-1 30 μM
Excerpt: A feature of many known biologically active peptide hormones is the presence of an amidated C-terminus, which can be important for peptide bioactivity, as for gastrin-releasing peptide neuromedin-B, or for increased peptide stability, as for GLP-1. Therefore, the peptide library was constructed with an amide (NH2) group at the C-terminus as the only modification for comparative studies between peptides (FIG. 2a). In total, we generated a library of 100 peptides for functional biological screening. The peptide solubility was deduced according to its overall charge and reconstituted accordingly to optimal solubility. For all peptides, quality control by mass spectrometry was performed which validated the purity of the synthesized peptides for the primary screen according to their theoretical molecular weight (FIG. 8). Next, we functionally explored the potency of 100 of the peptides in activating cfos expression, a marker of cellular activity, after 1 hour of peptide treatment across two cell lines, Neuroscreen-1, NS-1 (rat neuronal origin) and INS1 cells (rat pancreatic origin) (FIG. 2b). […]
RNA expression analysis. […] Relative mRNA expression was determined by normalization with Ribosomalprotein S18 (Rsp18) levels using the ΔΔCt method. […]

[2] = fasting blood glucose in lean C57BL/6 mice after I.P. injection (no food); format: in vivo; conditions: fasted, peptides 5 mg/kg or GLP-1 2 mg/kg I.P.
Protocol: (§1) We next performed in vivo studies to determine whether any of these peptides affected food intake or blood glucose levels—two biological consequences of cfos activation. For acute food intake studies, lean, 8-week-old C57BL/6 mice (N=3/group) were fasted for 16 hours prior to administration of vehicle (saline), GLP-1 at 2 mg/kg, or FGF3_4, EDIL3_4, BRNP2_5, SCG1_9, FSTL4_3, and FGF5_5 peptides at 5 mg/kg. The food intake was then monitored over 6 hours.
(§2) For acute experiments, after overnight fasting for 16 hours, 8-week-old C57BL/6 mice were weighed and I.P. injected with either saline, GLP-1 at 2 mg/kg or peptides at 5 mg/kg (N=3 mice per group). Fasted blood glucose and food intake was then monitored for 6 hours.

[3] = metabolic cages (Columbus comprehensive lab animal monitoring system) after single injection; format: in vivo, mice
Protocol: To study the metabolic effects in more detail, we next used metabolic cages performed with a Columbus comprehensive lab animal monitoring system. C57BL6/J mice were acclimated to the cages and randomized into two groups, followed by an I.P. injection with either vehicle (saline) or 5 mg/kg BRP (N=4/group).
Food intake, energy expenditure and body composition measurements. Measurements of accumulated food intake and VO2 were performed using a Comprehensive Lab Animal Monitoring System at room temperature (20-22° C.) (Oxymax, Columbus Instruments) as previously described. Singly housed mice were acclimated in metabolic cages for at least 24 h before the start of experiment to minimize stress.

[4] = acute food intake in fasted lean C57BL/6 mice after I.P. injection; format: in vivo; conditions: 5 mg/kg I.P., up to 6 hours
Protocol: as §1
Mouse studies. Animal experiments were performed per procedures approved by the Institutional Animal Care and Use Committee of the Stanford Animal Care and Use Committee (APLAC) protocol number #32982. C57BL/6J male mice were purchased from the Jackson Laboratory (#000664) and were used after 1 week of acclimatization after import into the facility. Unless otherwise stated, all mice were in good health and housed in a temperature-controlled (20-22° C.) room on a 12-hour light/dark cycle with ad lib access to food and water.
as §2

[5] = test system: cfos expression in NS-1 cells; assay: cfos expression after 1 h peptide treatment, NS-1 cells (qRT-PCR); format: cell-based, rat; conditions: for cfos activation, alanine substitutions in the BRP sequence: 100 μg/kg, fully active = >15-fold over vehicle
Excerpt: A feature of many known biologically active peptide hormones is the presence of an amidated C-terminus, which can be important for peptide bioactivity, as for gastrin-releasing peptide neuromedin-B, or for increased peptide stability, as for GLP-1. Therefore, the peptide library was constructed with an amide (NH2) group at the C-terminus as the only modification for comparative studies between peptides (FIG. 2a). In total, we generated a library of 100 peptides for functional biological screening. The peptide solubility was deduced according to its overall charge and reconstituted accordingly to optimal solubility. For all peptides, quality control by mass spectrometry was performed which validated the purity of the synthesized peptides for the primary screen according to their theoretical molecular weight (FIG. 8). Next, we functionally explored the potency of 100 of the peptides in activating cfos expression, a marker of cellular activity, after 1 hour of peptide treatment across two cell lines, Neuroscreen-1, NS-1 (rat neuronal origin) and INS1 cells (rat pancreatic origin) (FIG. 2b). Glucagon-like peptide 1 (GLP-1^7-37), a 30-mer peptide ligand for the glucagon receptor family of G protein-coupled receptors in pancreatic 3-cells, was used as a positive control at 30 μM in INS1 cells. NGF (Nerve Growth Factor) was used as a positive control at 2 nM in NS-1 cells. Expectedly, we find that GLP-1^7-37 induces a ˜4-fold elevation of cfos expression in INS1 cells and NGF induces a ˜10-fold induction of cfos expression in NS-1 cells (FIG. 2b). Across the 100 tested peptides, 6 peptides, FGF34, EDIL3_4, BRNP2_5, SCG1_9, FSTL4_3, and FGF5_5 induced more than a >5-fold cfos expression across both cell lines compared with vehicle.
Cell culture. NS-1 rat neuronal cell line was cultured with RPMI 1640 medium (Gibco) supplemented with 10% FBS and 1% L-glutamine. INS-1 832/13 rat insulinoma cell line (#SCC207) was cultured with RPMI 1640 medium (Gibco) supplemented with 10% FBS, 1% L-glutamine, 10 mM HEPES, 1 mM NaPyruvate and 50 μM β-mercaptoethanol. For peptide activity assay, 3×10^5 NS-1 and INS1 cells were plated in 12 well-plates. The next day, cells were washed twice with warm PBS and starved in serum-free RPMI overnight. Indicated concentrations of NGF (2 nM) or GLP-1 (30 μM) or peptides (100 μg/ml) were added and incubated for 1 hr at 37° C. Cells were washed with PBS and RNA was isolated for cfos expression analysis.
RNA expression analysis. Total RNA was isolated using TRIzol (Thermo Fischer Scientific) and Rneasy mini kits (QIAGEN). RNA was reverse transcribed using the ABI high-capacity cDNA synthesis kit. For qRT-PCR analysis, cDNA, primers and SYBR-green fluorescent dye (ABI) was used. Relative mRNA expression was determined by normalization with Ribosomalprotein S18 (Rsp18) levels using the ΔΔCt method. The primer sequences used are […] and […] for Rsp18 and […] and […] for cfos.

[6] = open-field assay 30 min after single injection; format: in vivo, mice; conditions: 5 mg/kg I.P., 30 min post-injection
Protocol: Open field assay. 8-week-old C57BL/6 mice were transferred to the open-field facility and housed for 7 days for habituation before the test. Mice were weighed and then I.P. injected with either saline or BRP peptide at 5 mg/kg (N=15 mice per group, […] solution diluted in saline, total injection volume 100 ul per mouse). 30 min post-injection, the open-field test was performed in an Open Field Activity Arena (Med Associates Inc., St. Albans, VT. Model ENV-515) mounted with three planes of infrared detectors and within a specially designed sound-attenuating chamber (Med Associates Inc., St. Albans, VT. MED-017M-027). The arena was 43 cm (L)×43 cm (W)×30 cm (H), and the sound-attenuating chamber was 74 cm (L)×60 cm (W)×60 cm (H). Each mouse was placed in the corner of the testing arena and allowed to explore the arena for 10 minutes while being tracked by an automated tracking system. Data was analyzed using software Activity Monitor Version 7.8. Parameters analyzed include distance moved and time spent in the periphery and center of the arena. The periphery was defined as the zone 5 cm away from the arena wall.

Row | Substance | food intake, alanine substitutions compared with BRP [4] | cfos activation, alanine substitutions in the BRP sequence [5] | also measured
1 | GLP-1: 30-mer peptide ligand for the glucagon receptor family of GPCRs, positive control | – | – | elevation of cfos expression (positive control) [1]: ~4 fold; blood glucose [2]: lowered blood glucose; energy expenditure ([3]; single injection GLP-1 2 mg/kg): without affecting; food intake (metabolic cages) ([3]; single injection GLP-1 2 mg/kg): acutely suppresses; locomotor activity ([3]; single injection GLP-1 2 mg/kg): without affecting; meal size ([3]; single injection GLP-1 2 mg/kg): acutely suppresses
2 | THRILRALFNLC [Ala substitution on residue 7] | improves the appetite-suppressing effect of BRP | – | –
3 | THRALRRLFNLC [Ala substitution on residue 4] | reduced efficacy in lowering food intake | – | –
4 | THRIARRLFNLC [Ala substitution on residue 5] | reduced efficacy in lowering food intake | – | –
5 | THRILRRLFNLA [Ala substitution on residue 12] | reduced efficacy in lowering food intake | important to retain full activity | –
6 | THAILRRLFNLC [Ala substitution on residue 3] | reduced efficacy in lowering food intake | important to retain full activity | –
7 | THRILRRLFNLC (listed as Homo sapiens) [non-amidated BRP] | – | – | cfos activity in words ([5]; 100 μg/ml): no activity
8 | NGF: Nerve Growth Factor, positive control in NS-1 cells [reference compound] | – | – | induction of cfos expression (positive control) ([5]; NGF 2 nM): ~10 fold
9 | THRILRRLFNLC-NH2 [BRP, THRILRRLFNLC] | – | – | ambulatory activity ([3]; single I.P. injection 5 mg/kg): does not alter; anxiety-like behavior (open field) [6]: does not affect anxiety-like behavior
10 | THRILRRLFALC [Ala substitution on residue 10] | – | important to retain full activity | –
11 | THRILRRAFNLC [Ala substitution on residue 8] | reduced efficacy in lowering food intake | important to retain full activity | –
12 | THRILARLFNLC [Ala substitution on residue 6] | reduced efficacy in lowering food intake | – | –
